Patent publication US8597903B2, “Biotinidase assay” (Wallac Oy, priority 2009, dated 2013)

Legend:
[1] = molecular target: T1, biotinidase (Homo sapiens, UniProt P43251); assay: Heterogenous biotinidase assay (DELFIA); assay type: biochemical; conditions: 10 nM substrate, blood spots, +37° C. for 2 hours, Eu signal by time-resolved fluorometer (FIG. 1-3)
T1 construct: The blood spots (diameter 3.2 mm) were punched to the wells; from tissue; host or cells: dried blood spots (whole blood)
T1 sequence (P43251 22-523): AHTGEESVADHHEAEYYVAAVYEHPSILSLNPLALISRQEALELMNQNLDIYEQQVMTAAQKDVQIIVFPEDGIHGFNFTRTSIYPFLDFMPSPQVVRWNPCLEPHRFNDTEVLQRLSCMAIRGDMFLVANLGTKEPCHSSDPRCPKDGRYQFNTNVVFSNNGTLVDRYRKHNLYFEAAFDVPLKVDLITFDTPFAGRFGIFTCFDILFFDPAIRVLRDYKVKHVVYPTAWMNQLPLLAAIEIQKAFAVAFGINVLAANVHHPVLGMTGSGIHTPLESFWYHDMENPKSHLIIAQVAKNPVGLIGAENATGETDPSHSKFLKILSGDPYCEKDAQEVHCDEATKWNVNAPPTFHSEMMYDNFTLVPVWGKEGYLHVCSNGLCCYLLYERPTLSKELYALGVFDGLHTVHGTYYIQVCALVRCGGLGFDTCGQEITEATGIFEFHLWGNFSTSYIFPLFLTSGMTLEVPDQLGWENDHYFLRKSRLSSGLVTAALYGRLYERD
Method: A heterogenous assay is based on the use of streptavidin-specific antibody, streptavidin and biotinidase substrates (compounds 3, 5 and 7). Accordingly, 200 μA of anti-streptavidin antibody (1 μg per well, Novus Biologicals cat. No. NB200-448) was pipetted to the wells of the microplate in coating buffer (50 mM TRIS pH 7.4+50 mM NaCl). The plate was incubated at RT for 3 h. After that the plate was washed 2 times with Delfia Wash solution. The blood spots (diameter 3.2 mm) were punched to the wells. 10 nM of biotinidase substrate was added to the wells in reaction buffer (50 mM MES pH 6, 0.05% BSA, 0.01% TWEEN, 50 mM NaCl). The plate was incubated with slow shaking at +37° C. for 2 hours. 100 μA 20 nM streptavidin in reaction buffer was added into the wells. The plate was incubated for 1 hour at RT with slow shaking. The plate was washed for 4 times with Delfia Wash solution. 200 μA of Delfia Inducer was added to the wells and incubated for 15 minutes at RT. The Eu signal was measured with a time-resolved fluorometer. The more there is biotinidase enzyme in the sample the lower the Eu signal is.

[2] = Storage stability of the substrate; assay type: physicochemical; conditions: prolonged storage at ambient temperature
Method: Biocytin (8, 5 mg, 13 μmol) and the isothiocyanate chelate 9 (23 mg, 33 μmol) synthesized as disclosed in U.S. Pat. No. 4,920,195, were dissolved in the mixture of pyridine, water and triethylamine (9:1.5:01, v/v/v; 250 μL) and the mixture was stirred overnight at rt. The product was isolated by precipitation with acetone and purified with HPLC. Compound 10: ESI-TOF MS found, 1047.13; calcd for C40H46EuN8O12S^−1047.18.

Structure (SMILES)	function as a substrate for the enzyme in a biotinidase assay [1]	stability on storage [2]
O=C(O)CN(CCN(CC(=O)O)CC(Cc1ccc(NC(=O)CCCCC2SCC3NC(=O)NC32)cc1)N(CC(=O)O)CC(=O)O)CC(=O)O (stereo not drawn) [Compound 3]	does not function as a substrate	–
O=C(O)CN(CCN(CC(=O)O)CC(Cc1ccc(NC(=O)CCCCCNC(=O)CCCCC2SCC3NC(=O)NC32)cc1)N(CC(=O)O)CC(=O)O)CC(=O)O (stereo not drawn) [Compound 5]	functions as a favorable substrate	–
O=C(O)CN(CC(=O)O)Cc1cc(C#Cc2ccc(NC(=S)NC(CCCCNC(=O)CCCCC3SCC4NC(=O)NC43)C(=O)O)cc2)cc(CN(CC(=O)O)CC(=O)O)n1 (stereo not drawn) [Compound 10]	–	prone to Edman degradation
